The record followed here is patent publication US10202604B2, “Methods of using microRNA-141” (Stemirna Therapeutics Co., Ltd., priority 2016, dated 2019).

In one experiment the test system is Du145 cells. Description: Boyden chamber Matrigel invasion assay. The class given is cell-based, human. The following applies: 1, 2, and 5 μM for 96 h. As to the method:
FIGS. 3A-3J show partial suppression of epithelial to mesenchymal transition by miR-141 and CD44 as a direct target of miR-141. FIGS. 3A-3B show qPCR analysis of epithelial to mesenchymal transition markers in bulk (FIG. 3A) or CD44^+ (FIG. 3B) Du145 cells transfected with the miR-141 oligos (30 nM; 48 h). Results were presented as the relative expression levels over the cells transfected with the NC oligos. […] GAPDH was used as control and the relative protein levels after normalizing to GAPDH and NC controls were indicated below each lane. […] Shown below is the actual sequence in the region with the mutated miR-141 binding sequence indicated in grey (below). […] Shown are representative images. […]
Du145 cells transfected with NC or miR-141 oligos at the two doses and time intervals indicated were used in Western blotting. Indicated below are relative expression levels (normalized to respective GAPDH and compared to NC) of each protein determined by densitometric scanning of the individual bands. […]
FIG. 6A: Putative binding site of miR-141 in EZH2 3′-UTR. […] Relative protein levels were measured by densitometry and normalized to GAPDH levels (indicated below). […]
For Boyden Chamber invasion assays, Biocoat Matrigel Invasion Chamber (BD, Franklin Lakes, N.J.) was employed following the manufacturer's instructions. […] Representative images were taken for each membrane and cells were counted. […]

For another experiment, the system named is EZH2. The experiment can be described thus: EZH2 mRNA and protein levels. The experiment is classed as cell-based, human. The note with it: Du145 cells; 1, 2, and 5 μM for 96 h. As to the method: FIG. 6A: Putative binding site of miR-141 in EZH2 3′-UTR. […] FIG. 6C is a qPCR analysis of EZH2 mRNA levels in CD44^+ PCa cells. Bars, mean±SD. *P<0.05; **P<0.01. […] Bars, mean±SD. **P<0.01. […] Western blotting was performed in PC3 and Du145 cells transfected with NC (60 nM) or miR-141 (30 or 60 nM) oligos (72 h). Relative protein levels were measured by densitometry and normalized to GAPDH levels (indicated below). […] Du145 cells plated one day before were treated with 1, 2, and 5 μM of DZNep for 96 h and then cells were harvested for invasion assays. **P<0.01. Inset, WB showing reduced EZH2 proteins by DZNep. […] Du145 cells were transfected with 10 nM scramble siRNA (siCon) or EZH2-targeting siRNAs (siEZH2) or siEZH2 plus anti-miR-141 (30 nM). 48 h later, cells were harvested for invasion assays. Bars, mean±SD. **P<0.01. […] Du145 cells were co-transfected with 30 nM NC or miR-141 oligos together with empty vector or pCMV-EZH2 construct. After 48 h, cells were harvested for invasion assay. Bars, mean±SD. **P<0.01.
Total RNA was extracted using microRNA isolation kit (Life Technologies) according to the manufacturer's instructions. microRNA qPCRs were performed using TaqMan microRNA assays (Life Technologies). qPCR data for microRNAs were normalized to RNU48 whereas qPCR data for mRNAs were normalized to GAPDH.
For Boyden Chamber invasion assays, Biocoat Matrigel Invasion Chamber (BD, Franklin Lakes, N.J.) was employed following the manufacturer's instructions. Briefly, 100,000-200,000 of prostate cancer cells after transfection with […]/miR-141 oligos or infection with miR-141 over-expressing lentivirus were seeded into each well. Medium with 20% fetal bovine serum was used in the lower chamber as chemo-attractant. After 20 h, cells were fixed and stained using HEMA stain. Representative images were taken for each membrane and cells were counted. Migration assays were simultaneously performed in control wells using identical protocol with Transwell (Costar; 8 μl PET) without Matrigel. […]

Turning to `Cl.Nc1nccc2c1ncn2[C@@H]1C=C(CO)[C@@H](O)[C@H]1O` [DZNep, 3-Deazaneplanocin A hydrochloride, reference compound], the Du145 cell invasion entry in the experiment on Du145 cells was “blocked”. Moreover, the EZH2 protein entry in the experiment on EZH2 is on record as “reduced”.
